From patent publication US9809808B2, “Antimicrobial agents” (KATHOLIEKE UNIVERSITEIT LEUVEN K.U. LEUVEN R&D, priority 2008, dated 2017)
“And” between values parts separate entries of the source, which are not always exact repeats. Identical values can stand only once. Like-named read-outs stand apart in the source and are kept apart here.

Legend:
[1] = system: Salmonella typhimurium LT2; assay type: cell-based; conditions: 30 minutes
[2] = system: P. putida G1; assay type: cell-based, Pseudomonas putida
[3] = system: Pseudomonas aeruginosa PAO1p cells; test: Effect of different EDTA and endolysin concentrations on antibacterial activity of OBPgpLYS and PKOBPgpLYS; assay type: cell-based
Method: To determine the influence of EDTA on the antibacterial activity of unmodified and modified endolysins the antibacterial activity of the unmodified OBPgpLYS endolysin (SEQ ID NO: 7) and the PKOBPgpLYS endolysin (SEQ ID NO: 61) was tested on Pseudomonas aeruginosa PAO1p cells ([…] et al. J Clin Microbiol., 41(3):1192-1202 (2003)) using different concentrations of EDTA and endolysins. Exponential growing bacterial cells (OD600 nm of 0.6) were 100-fold diluted to a final density of about 10^6/ml and incubated for 30 minutes at room temperature without shaking with unmodified endolysin OBPgpLYS (SEQ ID NO: 7) and modified endolysin PKOBPgpLYS (SEQ ID NO: 61). […] Thereby, the following different EDTA concentrations were used: 0 mM, 0.05 mM, 0.5 mM and 10 mM. […] After incubation cell suspensions were diluted three times (respectively 10^5-10^4-10^3 cells/ml) and 100 μl of each dilution was plated out on LB-medium. […] All samples were replicated in threefold. Averages+/-standard deviations are represented.

[4] = system: Burkholderia pseudomallei; assay type: cell-based; conditions: 30 minutes
[5] = system: Escherichia coli WK6; assay type: cell-based
[6] = system: P. aeruginosa Br667; assay type: cell-based, Pseudomonas aeruginosa
[7] = system: Gram-negative strains of Table 12; assay type: cell-based
[8] = 1.313 μM endolysin + 0.5 mM EDTA
[9] = 1.313 μM endolysin, no EDTA, 30 minutes

**Q.** With “PKOBPgpLYS: SEQ ID NO: 61: OBPgpLYS (SEQ ID NO: 7) with N-terminal peptide stretch KRKKRKKRK (SEQ ID NO: 11)” as the substance, how does the “relative inactivation in logarithmic units (log10N0/Ni)” value (shortened to “relative inactivation … (log10N0/Ni)”) [1, 8] read?
**A.** The value was 0.908 +/− 0.037 logarithmic units.

**Q.** What about the “relative inactivation … (log10N0/Ni)” value ([1]; 1.313 μM endolysin, no EDTA) of the same substance?
**A.** Its value is 0.127 +/− 0.013 logarithmic units.

**Q.** And the “relative inactivation … (log10N0/Ni)” value [2]?
**A.** Its value is over 4.891 logarithmic units.

**Q.** And the “relative inactivation … (log10N0/Ni)” value [2, 9]?
**A.** The value was 0.904 +/− 0.079 logarithmic units.

**Q.** What about the “Δ, difference of activity between OBPgpLYS and PKOBPgpLYS samples” value (“Δ, difference” below) ([3]; 0.013 μM endolysin, 0 mM EDTA-Na2) of the same substance?
**A.** The value was 0.036 log units.

**Q.** And the “relative inactivation … (log10N0/Ni)” value ([3]; 0.013 μM endolysin, 0 mM EDTA-Na2, 30 minutes)?
**A.** Its value is 0.992 +/− 0.181 log units.

**Q.** What about the “Δ, difference” value ([3]; 0.013 μM endolysin, 0.5 mM EDTA-Na2) of the same substance?
**A.** The value was 0.578 log units.

**Q.** What about the “relative inactivation … (log10N0/Ni)” value ([3]; 0.013 μM endolysin, 0.5 mM EDTA-Na2, 30 minutes) of the same substance?
**A.** The value was 5.204 +/− 0.000 log units.

**Q.** What about the “Δ, difference” value ([3]; 0.131 μM endolysin, 0 mM EDTA-Na2) of the same substance?
**A.** The value was 0.371 log units.

**Q.** What about the “relative inactivation … (log10N0/Ni)” value ([3]; 0.131 μM endolysin, 0 mM EDTA-Na2, 30 minutes) of the same substance?
**A.** The value was 2.529 +/− 0.184 log units.

**Q.** And the “Δ, difference” value ([3]; 0.131 μM endolysin, 0.5 mM EDTA-Na2)?
**A.** The value was 1.072 log units.

**Q.** And the “relative inactivation … (log10N0/Ni)” value ([3]; 0.131 μM endolysin, 0.5 mM EDTA-Na2, 30 minutes)?
**A.** Its value is 5.671 +/− 0.000 log units.

**Q.** What about the “Δ, difference” value ([3]; 1.315 μM endolysin, 0 mM EDTA-Na2) of the same substance?
**A.** Its value is 0.5 log units and 0.548 log units.

**Q.** What about the “relative inactivation … (log10N0/Ni)” value ([3]; 1.315 μM endolysin, 0 mM EDTA-Na2, 30 minutes) of the same substance?
**A.** The value was 3.079 +/− 0.015 log units.

**Q.** What about the “Δ, difference” value ([3]; 1.315 μM endolysin, 0.05 mM EDTA-Na2) of the same substance?
**A.** Its value is 1.383 log units.

**Q.** And the “relative inactivation … (log10N0/Ni)” value ([3]; 1.315 μM endolysin, 0.05 mM EDTA-Na2, 30 minutes)?
**A.** Its value is 4.145 +/− 0.015 log units.

**Q.** And the “Δ, difference” value ([3]; 1.315 μM endolysin, 0.5 mM EDTA-Na2)?
**A.** The value was over 1.330 log units.

**Q.** And the “relative inactivation … (log10N0/Ni)” value ([3]; 1.315 μM endolysin, 0.5 mM EDTA-Na2, 30 minutes)?
**A.** The value was > 5.69 log units and >5.687 log units.

**Q.** And the “Δ, difference” value ([3]; 1.315 μM endolysin, 10 mM EDTA-Na2)?
**A.** Its value is over 0.799 log units.

**Q.** And the “relative inactivation … (log10N0/Ni)” value ([3]; 1.315 μM endolysin, 10 mM EDTA-Na2, 30 minutes)?
**A.** The value was > 5.69 log units and >5.687 log units.

**Q.** And the “relative inactivation … (log10N0/Ni)” value [4, 8]?
**A.** Its value is over 4.861 logarithmic units.

**Q.** What about the “relative inactivation … (log10N0/Ni)” value ([4]; 1.313 μM endolysin, no EDTA) of the same substance?
**A.** Its value is 1.806 +/− 0.287 logarithmic units.

**Q.** And the “relative inactivation … (log10N0/Ni)” value [5]?
**A.** Its value is 1.695 +/− 0.147 logarithmic units.

**Q.** What about the “relative inactivation … (log10N0/Ni)” value [5, 9] of the same substance?
**A.** Its value is 1.434 +/− 0.018 logarithmic units.

**Q.** What about the “relative inactivation … (log10N0/Ni)” value [6] of the same substance?
**A.** Its value is 5.272 +/− 0.573 logarithmic units.

**Q.** And the “relative inactivation … (log10N0/Ni)” value [6, 9]?
**A.** The value was 1.163 +/− 0.063 logarithmic units.

**Q.** What about the “effect compared to unmodified OBPgpLYS (in words)” value [7] of the same substance?
**A.** The value was “added effect”.

**Q.** What about the “interaction with EDTA (in words)” value [7] of the same substance?
**A.** The value was “clear synergistic effect”.
